Data: patent US20040072746A1, “Inhibitors of monocarboxylate transport” (priority 2001, published 2004)
Like-named read-outs stand apart in the source and are kept apart here.

Tests used:
[1] = target: T1, human MCT2 (Homo sapiens, UniProt O60669); assay: MCT filter binding assay, yeast membranes, radioligand specific binding; settings: ~2.5 nM radioligand
T1 construct: The full length open reading frame for human MCT2 was then subcloned into the S. cerevisiae expression plasmid, pACES14; made in house; host or cells: Saccharomyces cerevisiae BY4742 (jen1 deletion), membrane preparation; plasmid pACES14-hMCT2
T1 sequence (O60669 1-478): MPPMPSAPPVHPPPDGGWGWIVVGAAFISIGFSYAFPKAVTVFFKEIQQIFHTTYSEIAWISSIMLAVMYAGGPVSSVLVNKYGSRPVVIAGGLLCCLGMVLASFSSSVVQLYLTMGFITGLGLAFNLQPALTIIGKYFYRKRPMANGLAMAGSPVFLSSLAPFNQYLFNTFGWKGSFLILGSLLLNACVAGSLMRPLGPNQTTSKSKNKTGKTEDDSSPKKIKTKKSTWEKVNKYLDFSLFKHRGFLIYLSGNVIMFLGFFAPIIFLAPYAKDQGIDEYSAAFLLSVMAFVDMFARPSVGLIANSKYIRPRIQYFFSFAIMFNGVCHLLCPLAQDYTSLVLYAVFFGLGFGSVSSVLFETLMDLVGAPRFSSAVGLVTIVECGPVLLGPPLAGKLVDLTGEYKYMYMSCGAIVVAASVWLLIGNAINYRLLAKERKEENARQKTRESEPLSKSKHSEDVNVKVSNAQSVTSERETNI
Procedure: (§1) For yeast cells transformed with expression plasmids containing the human MCT 1-4 ORFs the ability of membrane preparations to bind radioligand was determined using a single ligand concentration/multi protein concentration binding assay. This generated an estimate of the amount of active binding protein present in each membrane preparation. The ligand concentration used will give an estimate of Bmax that is approximately 90% of the true value. 10 μl of ligand A, B or C that had been diluted 50 fold with assay buffer (50 mM HEPES, 0.1 mM EDTA, 0.15 M NaCl, pH 7.5, 0.5% BSA) was dispensed into wells of a polypropylene microtitre plate. This gives a final radiolabelled ligand concentration of ˜2.5 nM. […] The membranes were diluted to give a known amount/180 μl assay buffer. This is typically in the […] range. For the membranes with high binding site number a more dilute membrane preparation should be added. 180 μl of each membrane solution was then added to each well and incubated at 2 hours at room temperature with shaking. The membranes were harvested onto GF-B filter plates and washed with assay buffer without BSA, dried, scintillant added and counts detected using the relevant program for each ligand on a Packard Top Count plate reader.

[2] = target: T2, human MCT3 (Homo sapiens, UniProt O95907); assay: as above; settings: ~2.5 nM radioligand
T2 construct: the full length open reading frame of human MCT3 was subcloned into the S. cerevisiae expression plasmid pACES14; made in house; host or cells: Saccharomyces cerevisiae BY4742 (jen1 deletion), membrane preparation; plasmid pACES14-hMCT3
T2 sequence (O95907 1-504): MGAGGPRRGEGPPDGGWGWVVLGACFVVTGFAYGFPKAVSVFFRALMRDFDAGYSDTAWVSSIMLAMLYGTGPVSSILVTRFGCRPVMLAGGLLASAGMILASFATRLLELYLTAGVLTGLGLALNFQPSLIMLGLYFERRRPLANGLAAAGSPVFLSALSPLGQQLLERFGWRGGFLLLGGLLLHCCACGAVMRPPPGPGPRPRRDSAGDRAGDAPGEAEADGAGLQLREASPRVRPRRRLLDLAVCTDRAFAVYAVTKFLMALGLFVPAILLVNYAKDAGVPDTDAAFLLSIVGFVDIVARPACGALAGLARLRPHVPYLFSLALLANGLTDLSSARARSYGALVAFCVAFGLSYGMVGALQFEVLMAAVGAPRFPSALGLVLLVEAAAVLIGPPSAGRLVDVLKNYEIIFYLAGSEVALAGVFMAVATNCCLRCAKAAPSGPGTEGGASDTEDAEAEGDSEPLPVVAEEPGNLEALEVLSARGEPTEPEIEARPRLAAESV
Procedure: as §1

[3] = target: T3, human MCT4 (Homo sapiens, UniProt O15427); assay: as above; settings: ~2.5 nM radioligand
T3 construct: from the full length copy and subcloned into the S. cerevisiae expression plasmid pACES14; made in house; host or cells: Saccharomyces cerevisiae BY4742 (jen1 deletion), membrane preparation; plasmid pACES14-hMCT4
T3 sequence (O15427 1-465): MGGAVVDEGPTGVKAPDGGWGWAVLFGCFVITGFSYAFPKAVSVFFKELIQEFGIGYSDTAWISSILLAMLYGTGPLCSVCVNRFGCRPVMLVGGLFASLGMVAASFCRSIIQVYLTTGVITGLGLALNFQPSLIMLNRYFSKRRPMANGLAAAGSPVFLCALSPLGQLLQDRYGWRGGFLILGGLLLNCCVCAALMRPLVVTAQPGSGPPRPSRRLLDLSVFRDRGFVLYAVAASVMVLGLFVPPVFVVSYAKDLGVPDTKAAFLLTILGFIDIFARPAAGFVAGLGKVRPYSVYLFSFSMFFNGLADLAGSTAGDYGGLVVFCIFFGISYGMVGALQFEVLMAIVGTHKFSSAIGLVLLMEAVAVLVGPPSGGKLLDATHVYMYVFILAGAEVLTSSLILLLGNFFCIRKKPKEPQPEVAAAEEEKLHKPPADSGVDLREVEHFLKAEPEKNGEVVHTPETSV
Procedure: as §1

[4] = MCT filter binding assay, yeast membranes transformed with vector only; settings: ~2.5 nM radioligand
Procedure: as §1

[5] = test system: MDA-MB-231 cell line; assay: Filter binding of 3H-ligand C to MDA-MB-231 cells; set-up: species or system human; settings: untransfected MDA-MB-231
Procedure: The human breast cell line MDA-MB-231 had been previously identified as expressing low levels of MCT1 (Garcia et al., Cell. 76:865-873, 1994). The MDA-MB-231 cell line was grown. […] The cells were grown and transfected with pcDNA3-hMCT1. An increase in filter binding of ^3H-ligand C was consistently measured for transiently transfected cells when compared with control cells transfected with empty vector.

[6] = target: T4, MCT1 (Homo sapiens, UniProt P53985, D490E); assay: MCT filter binding assay, yeast membranes, radioligand specific binding; set-up: made in house; host or cells: Saccharomyces cerevisiae BY4742 (jen1 deletion), membrane preparation; plasmid pACES14-hMCT1; settings: ~2.5 nM radioligand
T4 sequence (P53985 1-500 D490E): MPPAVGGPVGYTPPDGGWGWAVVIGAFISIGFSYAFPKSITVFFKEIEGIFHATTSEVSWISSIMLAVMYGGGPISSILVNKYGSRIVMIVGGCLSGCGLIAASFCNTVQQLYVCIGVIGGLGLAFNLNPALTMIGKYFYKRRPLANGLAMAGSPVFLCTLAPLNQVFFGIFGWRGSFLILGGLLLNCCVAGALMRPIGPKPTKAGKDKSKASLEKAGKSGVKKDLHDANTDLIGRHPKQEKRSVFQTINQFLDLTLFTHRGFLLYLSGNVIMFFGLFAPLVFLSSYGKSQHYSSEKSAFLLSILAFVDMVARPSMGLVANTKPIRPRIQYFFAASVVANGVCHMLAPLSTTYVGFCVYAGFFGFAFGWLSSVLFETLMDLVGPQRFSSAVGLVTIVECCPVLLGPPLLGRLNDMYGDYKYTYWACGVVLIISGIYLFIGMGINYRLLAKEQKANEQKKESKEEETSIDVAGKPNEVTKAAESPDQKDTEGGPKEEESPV
Procedure: as §1

[7] = test system: activated T-lymphocytes; assay: DNA synthesis ([3H]-thymidine incorporation) in activated T-lymphocytes; format: cell-based; settings: Homo sapiens, T-lymphocyte; Mean±s.e.mean (mean±range for n=2); read-out: pIA50 DNA (converted)
Procedure: (§2) PBMCs were prepared as described above by separation over Lymphoprep and T-lymphocytes were then enriched by purification on a nylon wool column. Briefly, 0.6 g nylon wool was inserted into a 10 ml syringe and this was autoclaved. […] The PBMC were resuspended in 1 ml of pre-warmed RPMI (20% HS) and were loaded onto the nylon wool column. The column was incubated for 45 min at 37° C. followed by elution of the T-cells by adding 10 ml RPMI (20% HS) (prewarmed to 37° C.) dropwise to the column. The T-cells obtained from the elution of the column were centrifuged (850 g for 5 min) and resuspended in RPMI containing L-glutamine and 5% human serum and stimulated with 0.5 ng/ml PMA and 500 ng/ml lonomycin for 48 h.
DNA synthesis was assessed by measuring the incorporation of [^3H]-thymidine. The assay was carried out in a 96-well plate. 20 μl of test compounds at 10× the final concentration were added to the plate followed by 200 μl of T-cells per well (2×10^5 cells). The cells were cultured for 4 h under standard cell culture conditions and cultures were pulsed with ^3H-thymidine (0.5 μCi/well; Amersham) for the final hour of the incubation.

[8] = test system: activated T-lymphocytes; assay: Extracellular lactate levels in activated T-lymphocytes (lactate oxidase); format: cell-based, human; settings: Homo sapiens, T-lymphocyte; Mean±s.e.mean (mean±range for n=2); read-out: pIA50 Extracellular Lactate (converted)
Procedure: as §2
20 μl of each concentration were added to triplicate wells of a 96-well plate. T-cells were then added (200 μl per well, 2×10^5 cells) and were cultured for 4 h under standard cell culture conditions. The cell supernatants were collected from each well after the cells were pelleted by centrifugation of the plate at 850 g for 5 min at 4° C. 10 μl of each supernatant sample were used for the lactate determination.
(§3) The assay was carried out in 96-well plates at room temperature. 10 μl of standard or sample were added to each well followed by 200 μl of the Lactate Reagent. […] The data were collected and analysed using SOFTmax PRO software (Molecular Devices).

[9] = test system: activated T-lymphocytes; assay: Intracellular lactate levels in activated T-lymphocytes (lactate oxidase); format: cell-based; settings: Homo sapiens, T-lymphocyte; Mean±s.e.mean (mean±range for n=2); read-out: pIA50 Intracellular Lactate (converted)
Procedure: as §2
100 μl of each concentration were added to triplicate wells of a 24-well plate. T-cells were then added (1 ml per well) and were cultured for 4 h under standard cell culture conditions. The cells were then transferred from each well to microfuge tubes and were centrifuged at 360 g for 5 min at 4° C. The supernatant was discarded and the cell pellet was resuspended in 1 ml of ice-cold PBS, pH5.0. The cells were washed twice in PBS by centrifugation (360 g, 5 min, 4° C.) followed by resuspension of the cell pellet in 100 μl deionized water. The cells were incubated for 15 min at 4° C. to allow cell lysis to occur and the cell debris was removed by centrifugation at 15000 g for 10 min at 4° C. 10 μl of each supernatant sample were used for the lactate determination.
as §3

[10] = test system: Splenic B-lymphocytes; assay: Inhibition of B-lymphocyte proliferation; format: cell-based, Balb/c mice; settings: 48 hours
Procedure: Splenic B-lymphocytes were obtained from Balb/c mice by disruption of the spleen through a nylon sieve. The resultant cellular suspension was washed three times by centrifugation. The spleen cells were then plated out in flat-bottomed 96 well microtitre plates at a concentration of 2-4×10^5 cells per well. B-lymphocyte stimulators were added with or without compound. Stimulators employed were lipopolysaccharide (LPS) at 50 μg/ml, 8-mercaptoguanosine (8MG) at 100 μg/ml, or goat anti mouse IgM at 40 μg/ml. […] The cultures were incubated for 48 hours at 37° C. and pulsed with tritiated thymidine for the final 6 hours. The cells were harvested as described previously and thymidine uptake used as a measure of DNA synthesis.

[11] = target: T5, human MCT1 (Homo sapiens, UniProt P53985, D490E); assay: Lactate uptake by change in intracellular pH (BCECF) in INS-1 cells expressing MCT; format: cell-based; settings: 100 nM, INS-1 cells expressing human MCT1, n=2
T5 sequence (P53985 1-500 D490E): T4 sequence (P53985 1-500 D490E)
T5 sequence (P26453 142-388 partner limits assumed): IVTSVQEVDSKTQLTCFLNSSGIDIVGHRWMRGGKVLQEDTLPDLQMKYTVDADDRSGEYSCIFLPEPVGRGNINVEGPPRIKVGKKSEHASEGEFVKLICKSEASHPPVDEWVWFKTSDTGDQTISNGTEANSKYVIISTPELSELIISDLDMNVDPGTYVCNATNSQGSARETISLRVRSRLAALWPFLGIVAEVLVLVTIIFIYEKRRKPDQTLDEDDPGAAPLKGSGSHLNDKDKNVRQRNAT

[12] = test system: peripheral blood mononuclear cells (PBMC); assay: T-lymphocyte proliferation, PMA/ionomycin stimulated PBMC, 3 days; settings: Homo sapiens, 72 h, read-out: pIA50 Proliferation (3 days) (converted)
Source text: The cell signalling pathways triggered by T-cell activation through the T cell receptor and CD28 can be mimicked in vitro using a phorbol ester, phorbol 12-myristate 13-acetate (PMA), which activates protein kinase C, and ionomycin, which induces calcium release from internal cellular stores. PMA and ionomycin-stimulated proliferation of peripheral blood mononuclear cells (PBMC), of which the predominant cell type is T-lymphocytes, provides a suitable assay for measuring the ability of small molecules to block T-cell proliferation.
Blood was centrifuged at 850 g for 10 minutes and the plasma was removed. […] The blood/Lymphoprep layers were centrifuged at 850 g for 20 minutes at 18° C. (with no brake).
10 μl of compound in solution was then added to the 96-well flat bottom assay plate (final volume of 200 μl). […] Both were diluted to 4× the final assay concentration in complete medium. 50 μl of each reagent was dispensed per well to give a final assay concentration of 0.5 ng/ml PMA and 500 ng/ml ionomycin. Control wells received 100 μl cells with PMA only (negative control 1), with ionomycin only (negative control 2) and 100 μl cells with 50 μl PMA and 50 μl ionomycin with no test compound (positive control). 100 μl complete medium was added to the negative controls. […]

Row | IC50 [7] | IC50 [8] | EC50 [9] | effect on decrease in intracellular pH on addition of exogenous lactate [11] | Structure (SMILES) | Specific binding (cpm) Average ([1]; MCT2 (2 ug)) | Specific binding (cpm) Average ([1]; MCT2 (20 ug)) | Specific binding (cpm) Average ([2]; MCT3 (2 ug)) | Specific binding (cpm) Average ([2]; MCT3 (20 ug)) | Specific binding (cpm) Average ([3]; MCT4 (2 ug)) | Specific binding (cpm) Average ([3]; MCT4 (20 ug)) | Specific binding (cpm) Average ([4]; vector (2 ug)) | Specific binding (cpm) Average ([4]; vector (20 ug)) | binding sites per cell [5] | Specific binding (cpm) Average ([6]; MCT1 (2 ug)) | Specific binding (cpm) Average ([6]; MCT1 (20 ug)) | IC50 ([10]; Mus musculus, 8-mercaptoguanosine 100 μg/ml, partial inhibition, read-out: IA50, proliferative response to 8MG) | IC50 ([10]; Mus musculus, LPS 50 μg/ml, partial inhibition, read-out: IA50, proliferative response to LPS) | IC50 ([10]; goat anti mouse IgM 40 μg/ml, weak, read-out: IA50, proliferative response to goat anti-mouse IgM) | IC50 [12]
1 |  |  |  |  | [3H]CC([3H])(C[3H])Cn1c(=O)n(C)c(=O)c2c(SCCCO)n(Cc3cccc4ccccc34)cc21 [Ligand C, 5-[(3-Hydroxypropyl)thio]-1-([2,3,3′-^3H]isobutyl)-3-methyl-6-(1-naphthalenylmethyl)-1H-pyrrolo[3,4-d]pyrimidine-2,4(3H,6H)-dione] | 593 cpm | 213 cpm | 0 cpm | 40 cpm | 81 cpm | 0 cpm | 0 cpm | 0 cpm | ~6000 binding sites per cell | 3621 cpm | 5553 cpm |  |  |  | 
2 | 1.35 nM | 0.794 nM | 0.55 nM | completely abolished | CC(C)Cc1nn(C)c(=O)c2c(SCCCO)n(Cc3cccc4ccccc34)cc12 [Ligand 2, 2,6-dihydro-7-[(3-hydroxypropyl)thio]-2-methyl-4-(2-methylpropyl)-6-(1-napthanlenylmethyl)-1H-pyrrolo[3,4-d]pyridazin-1-one] |  |  |  |  |  |  |  |  |  |  |  | 10 nM | 5 nM | > 100 nM | 0.38 nM
